pIC50: −log10 of the molar value.
Assays:
PC-3 = test: Antiproliferative activity against human PC-3 cells assessed as inhibition of cell proliferation measured after 72 hrs by MTT assay; type: functional, cell-based; details: PC-3, 72 h
ECa-109 cell line = test: Antiproliferative activity against human ECa-109 cell line cells assessed as inhibition of cell proliferation measured after 72 hrs by MTT assay; type: functional, cell-based; details: ECa-109, 72 h
DU-145 = test: Antiproliferative activity against human DU-145 cell line cells assessed as inhibition of cell proliferation measured after 72 hrs by MTT assay; type: functional, cell-based; details: DU-145, 72 h
MGC-803 = test: Antiproliferative activity against human MGC-803 cell line cells assessed as inhibition of cell proliferation measured after 72 hrs by MTT assay; type: functional, cell-based; details: MGC-803, 72 h
MCF7 = test: Antiproliferative activity against human MCF7 cell line cells assessed as inhibition of cell proliferation measured after 72 hrs by MTT assay; type: functional, cell-based; details: MCF7, 72 h
[1] = Cytotoxicity against human WPMY-1 cell line cells assessed as inhibition of cell proliferation measured after 72 hrs by MTT assay; type: cell-based; details: WPMY-1, 72 h

| Structure (SMILES) | pIC50 (PC-3) | pIC50 (ECa-109 cell line) | pIC50 (DU-145) | pIC50 (MGC-803) | pIC50 (MCF7) | pIC50 [1] |
| --- | --- | --- | --- | --- | --- | --- |
| C/C(=N\Nc1ccc(C(=O)NCCc2c(C)[nH]c3ccccc23)cn1)c1ccccn1 | 6.39 | 6.18 | 5.69 | 5.37 | 6.06 | 6.35 |
| COc1ccc2[nH]cc(CCNC(=O)c3ccc(NC(=S)N/N=C(\C)c4ccccn4)cc3)c2c1 | 6.02 | 5.19 | 5.23 | 5.40 | 5.27 | 5.35 |
| Cc1[nH]c2ccccc2c1CCNC(=O)c1ccc(NC(=S)N/N=C/c2ccc(C(=O)O)cn2)cc1 | 5.80 | 4.78 | 5.25 | < 4.70 | < 4.70 | 5.49 |
| CN(C(=S)NN=C(c1ccccn1)c1ccccn1)C1CCCCC1 |  |  |  |  |  | 6.15 |
| Cc1ccc(/C=N/NC(=S)Nc2ccc(C(=O)NCCc3c[nH]c4ccccc34)cn2)nc1 | 6.29 | 4.90 | 5.21 | 5.12 | 5.08 | 5.60 |
| Cc1ncc(CO)c(/C=N/NC(=O)c2ccc(C(=O)NCCc3c(C)[nH]c4ccccc34)cc2)c1O | < 4.70 | < 4.70 | < 4.70 | < 4.70 | < 4.70 | < 4.70 |
| Cc1ccc(/C=N/NC(=S)NCCc2c[nH]c3ccccc23)nc1 | 6.22 | 5.35 | 5.50 | 5.25 | 5.04 | 5.63 |
| Cc1ccc(/C=N/NC(=S)Nc2ccc(C(=O)NCCc3c[nH]c4ccccc34)cc2)nc1 | 6.62 | 5.40 | 5.84 | 5.15 | 5.15 | 4.90 |
| Cc1ccc(/C=N/NC(=S)NCc2ccc(C(=O)NCCc3c[nH]c4ccccc34)cc2)nc1 | 5.85 | 4.73 | 5.92 | 5.31 | 5.06 | 5.96 |
| Cc1[nH]c2ccccc2c1CCNC(=O)c1ccc(NC(=S)N/N=C/c2ccc(Br)cn2)cc1 | 6.49 | 4.86 | 5.72 | < 4.70 | < 4.70 | 5.75 |
| Cc1ccc(/C=N/NC(=S)Nc2ccc(C(=O)NCCc3c[nH]c4ccc(C)cc34)cc2)nc1 | 7.09 | 5.79 | 5.97 | 5.51 | 5.40 | 4.96 |
| COc1ccc(/C=N/NC(=S)Nc2ccc(C(=O)NCCc3c[nH]c4ccc(OC)cc34)cc2)nc1 | 7.03 | 5.04 | 5.37 | 5.05 | 5.71 | < 4.70 |
| Cc1[nH]c2ccccc2c1CCNC(=O)c1ccc(NC(=S)N/N=C2/C(=O)Nc3ccccc32)cc1 | 4.77 | < 4.70 | 4.73 | < 4.70 | < 4.70 | < 4.70 |
| Cc1ccc(/C=N/NC(=S)Nc2ccc(C(=O)NCCc3c[nH]c4ccc(Cl)cc34)cc2)nc1 | 6.92 | 5.62 | 6.03 | 5.57 | 5.14 | 5.15 |
| Cc1ccc(/C=N/NC(=S)NC2CCC(C(=O)NCCc3c[nH]c4ccccc34)CC2)nc1 (stereo unspecified) | 5.65 | 4.85 | 5.65 | 5.34 | 5.09 | 5.81 |
| COc1ccc(/C=N/NC(=S)Nc2ccc(C(=O)NCCc3c(C)[nH]c4ccccc34)cc2)nc1 | 7.08 | 5.26 | 5.39 | 5.20 | 5.20 | < 4.70 |
| Cc1[nH]c2ccccc2c1CCNC(=O)c1ccc(NC(=S)N/N=C/c2ccccc2O)cc1 | 5.27 | 5.02 | 4.84 | < 4.70 | < 4.70 | 5.54 |
| C/C(=N\NC(=S)Nc1ccc(C(=O)NCCc2c(C)[nH]c3ccccc23)cc1)c1ccccn1 | 6.15 | 5.22 | 5.40 | 5.20 | 5.19 | 5.45 |
| COc1ccc2[nH]cc(CCNC(=O)c3ccc(NC(=S)N/N=C/c4ccc(O)cn4)cc3)c2c1 | 5.60 | < 4.70 | 4.82 | < 4.70 | < 4.70 | < 4.70 |
| COc1ccc2[nH]cc(CCNC(=O)c3ccc(NC(=S)N/N=C/c4ccccn4)cc3)c2c1 | 6.88 | 5.30 | 5.38 | 5.27 | 5.19 | 4.91 |
| Cc1[nH]c2ccccc2c1CCNC(=O)c1ccc(NC(=S)N/N=C/c2ccc(O)cn2)cc1 | 5.82 | 4.79 | 4.77 | < 4.70 | < 4.70 | < 4.70 |
| NC(=S)N/N=C/c1ncccc1N [TRIAPINE] |  |  |  |  |  | 5.30 |
| Cc1[nH]c2ccccc2c1CCNC(=O)c1ccc(NC(=S)N/N=C/c2ccc(Cl)cn2)cc1 | 6.34 | 4.84 | 5.28 | 4.95 | 4.99 | 5.75 |
| Cc1[nH]c2ccccc2c1CCNC(=O)c1ccc(C(=O)NO)cc1 | < 4.70 | < 4.70 | < 4.70 | < 4.70 | < 4.70 | < 4.70 |
| COc1ccc2[nH]cc(CCNC(=O)c3ccc(NC(=S)N/N=C/c4ccc(C)cn4)cc3)c2c1 | 7.21 | 5.24 | 5.49 | 4.98 | 5.27 | 4.74 |
| Cc1[nH]c2ccccc2c1CCNC(=O)c1ccc(NC(=S)N/N=C/c2ccccn2)cc1 | 7.04 | 5.46 | 5.44 | 5.06 | 4.99 | 4.88 |

Source: ChEMBL document CHEMBL4732091, “Design, synthesis and biological evaluation of novel thiosemicarbazone-indole derivatives targeting prostate cancer cells” (Eur J Med Chem, 2021)
